How the values were obtained:
[1] = test system: cortical slices; assay: [3H]GABA release from prefrontal cortical slices; type: cell-based, mice; settings: 20 mM KCl
Experimental: FIG. 2A is a line graph of [^3H]GABA release fraction/total fraction versus time (mins). Cortical slices were preloaded with [^3H]GABA for 30 min in the presence of b-alanine (1 mM), an inhibitor of [^3H]GABA uptake by glial cells, aminooxyacetic acid (0.1 mM), an inhibitor of GABA degradation, and nipecotic acid (1 mM), an inhibitor of the GABA transporter in neurons. Basal and depolarization (20 mM KCl)-evoked release of [^3H]GABA were monitored sequentially. Controls (open circles) and NRG1 (closed circles). FIG. 2B is a line graph of percent [^3H]GABA release versus NRG1 concentration (nM). Basal (open circles) K+ evoked (closed circles). […] FIG. 2D is a line graph of cumulative counts versus mIPSC amplitude (pA). Controls (open circles) and NRG1 (closed circles). FIG. 2E is a line graph of cumulative counts versus mIPSC interevent interval (ms). Controls (open circles) and NRG1 (closed circles). FIG. 2F is a bar graph of mIPSC (percent) in control and NRG1 treated pyramidal neurons in prefrontal cortical slices (n=12). Amplitude (clear) and Frequencies (hatched). FIG. 2G is a bar graph of percent eIPSC amplitude in prefrontal cortical slices treated with NRG1 versus control or washout. n=12, *p<0.01. Representative eIPSCs of control, NRG1-treated, or NRG1-treated/washed slices are shown on top. FIG. 2H is a line graph of percent eIPSC amplitude versus NRG1 (nM). n=6, *p<0.05, **p<0.01. FIG. 2I is a bar graph of K^+ evoked [^3H]GABA release (percent) (left axis, clear rectangles) and eIPSC amplitude (percent) (right axis, hatched rectangles) in prefrontal cortical slices treated with NRG1, denature NRG1, or BDNF. n=8 for [^3H]GABA release; for eIPSCs, n=6 for control, NRG1, and denatured NRG1, and n=4 for BDNF. *p<0.05, #p<0.05; **p<0.05, ##<0.01.
NRG1 may regulate GABAergic neurotransmission. To test this hypothesis, the effects of NRG1 on GABA release in cortical slices were determined by both biochemical and electrophysiological approaches. Basal [^3H]GABA release was low, at a rate of 3.75±0.35% (n=8) of total radioactivity per 10 min (FIG. 2A). Treatment of slices with 20 mM KCl, a condition known to depolarize neurons, increased [^3H]GABA release by 2.5-3.5 folds within 10 min (FIG. 2A). NRG1 had no effect on basal [^3H]GABA release; by contrast, it increased depolarization-evoked GABA release in a dose-dependent manner (FIG. 2B). […] Furthermore, the NRG regulation remained unchanged in the presence of antagonists of metabotropic glutamate receptors, cholinergic receptors, serotonin receptors, adrenergic receptors and/or dopamine receptors. As a control, BDNF decreased depolarization-evoked GABA release and eIPSCs in cortical slices, in agreement with earlier studies (Canas, et al., Brain Res, 1016:72-78 (2004); Frerking, et al., J Neurophysiol, 80:3383-3386 (1998)).

[2] = test system: prefrontal cortical slices; assay: eIPSC recording in prefrontal cortical slices; type: cell-based, mice
Experimental: Transverse prefrontal cortical slices (0.3 mm) were prepared from P28-P36 mice using a Vibroslice (Leica VT 10005) in the ice-cold solution, which contained 2.5 mM KCl, 1.25 mM NaH2PO4, 10 mM MgSO4, 0.5 mMCaCl2, 26 mM NaHCO3, 10 mM glucose, and 230 mM sucrose. Slices were allowed to recover for at least 2 hr in ACSF (1 hr at 34° C. followed by 1 hr at 22° C.) in a solution containing 126 mM NaCl, 2.5 mM KCl, 1.25 mM NaH2PO4, 2 mM MgSO4, 2 mM CaCl2, 26 mM NaHCO3, and 10 mM glucose. Slices were placed in the recording chamber and superfused (1.5 ml/min) with ACSF at 34° C. All solutions were saturated with 95% O2/5% CO2. Neurons were visualized with an IR-sensitive CCD camera with a 403 water-immersion lens (Zeiss, Axioskop2 Fsplus) and recorded using whole-cell voltage-clamp techniques (MultiClamp 7008 Amplifier, Digidata 1320A analog-to-digital converter) and pClamp 9.2 software (Axon Instruments). Glass pipettes were filled with the solution containing 125 mM Cs-gluconate, 10 mM CsCl, 1 mM MgCl2, 10 mM HEPES, 1 mM EGTA, 0.1 mM CaCl2, 10 mM sodium phosphocreatine, 4 mM Mg-ATP, 0.3 mM GTP, 0.2 mM leupeptin, and 5 mM lidocaine N-ethylchloride (QX314) (pH 7.2, with the osmolarity adjusted to 280 mOsm with sucrose). The resistance of pipettes was 2-3 MΩ For mIPSC recording, QX314 was omitted in the pipette filling solution, whereas […] was included in the superfusing solution. eIPSCs were generated with a two-concentric bipolar stimulating electrode ([…] pole separation; FHC, ME) positioned about […] from the neuron under recording. Single or paired pulses of 0.2 ms were delivered at 0.1 Hz and synchronized using a Mater-8 stimulator (A.M.P.I). The holding potential for both mIPSCs and eIPSCs was −65 mV. All experiments were done at 34° C. in the presence of 6-cyano-7-nitroquinoxaline-2,3-dione (CNQX, […]) and AP-5 ([…]) to block AMPA/NMDA receptors. Data were collected when series resistance fluctuated within 15% of initial values (8-15 MU), they were filtered at 2 kHz, and they were sampled at 10 kHz.

[3] = substance alone, no other exogenous agent, AG1478/AG879 5 mM [sic]

COc1cc2ncnc(Nc3cccc(Cl)c3)c2cc1OC [AG1478] was tested, and the “depolarization-evoked [3H]GABA release” value [1, 3] was “decreased”, the “NRG1-enhanced evoked GABA release” value ([1]; substance given with exogenous NRG1) was “prevented” and the “evoked IPSCs (eIPSCs)” value [2, 3] was “decreased”. The “NRG1 potentiation of eIPSCs” value ([2]; substance given with exogenous NRG1 (5 nM)) was “prevented”.

Source: patent US20130224223A1, “Compositions and Methods for Treating Neurological Disorders” (GEORGIA REGENTS UNIVERSITY, priority 2007, published 2013)
